Test results taken from patent US10174035B2, “6-morpholinyl-2-pyrazolyl-9H-purine derivatives and their use as PI3K inhibitors” (Daiichi Sankyo Company, Limited, priority 2015, dated 2019).
Converted amounts (≈) assume the structure as drawn. Read-outs that look alike come from different tables or passages of the source.

What was measured:
[1] = tested on: IFN-γ release in mouse splenocytes; experiment: Phytohaemagglutinin (PHA)-induced interferon (IFN)-gamma release in mouse splenocytes; set-up: species or system C57BL/6 mouse; conditions: Splenocyte, PHA (10 μg/ml) for 48 hours, IFN-γ by ELISA, read-out: Cell Based IC50
Procedure: Effect of compounds on mitogen-induced IFN-γ release in mouse splenocytes was used to evaluate their potency in cell-based assay system [Blood (2010) 115: 2203-2213; Current Protocols in Immunology (2004) 3.12.1-3.12.20].
Mouse splenocytes were obtained from the spleen of a C57BL/6 mouse and plated at a density of 0.25 million cells/well in a 96 well tissue culture plate. The effect of the compounds to inhibit IFN-γ release was evaluated by treating the splenocytes with various concentrations of the test compounds followed by stimulation with PHA (10 μg/ml) for 48 hours. The IFN-γ release in the cell culture supernatant was quantified by ELISA as per the manufacturer's protocol (BD Biosciences, #555138).

[2] = molecular target: recombinant PI3K δ enzyme (Homo sapiens (Human), UniProt O00329); experiment: In vitro enzyme assay (Kinase-Glo luminescent kinase assay), PI3Kδ; type: biochemical
In short: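 Each recombinant human PI3K isoform at 2.29 μg/mL with 60 μM PIP2 and 10 μM ATP in HEPES pH 7.4, NaCl, CHAPS, MgCl2, DTT, 2 hours at room temperature. Remaining ATP read by Kinase-Glo luminescence relative to no-enzyme blanks.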

PI3Kβ = PI3Kβ (Homo sapiens (Human), UniProt P42338); experiment: In vitro enzyme assay (Kinase-Glo), selectivity, PI3Kβ; type: biochemical; conditions: enzyme 2.29 μg/mL; ATP 10 μM; PIP2 60 μM; 2 hours
Procedure: (§1) The Kinase-Glo luminescent kinase assay kit (from Promega) was used to measure kinase activity. In this assay, amount of ATP remaining in solution following a kinase reaction is measured. The effect of compounds on PI3Kδ inhibition was carried out by adding 2.29 μg/ml of recombinant PI3K δ enzyme (Proteros, Germany) to reaction mixture containing assay buffer (50 mM HEPES, pH 7.4, 50 mM NaCl, 0.05% CHAPS) supplemented with 10 mM MgCl2, 5 mM DTT, 60 μM Phosphatidyl inositol bisphosphate (PIP2) and 10 μM ATP in the absence or presence of different concentrations of the compounds in a final volume of 15 μl/well, in a 384 well plate. The reaction mixture was incubated for 2 hours at room temperature. At the end of incubation period the equal volume of Kinase-Glo plus (Promega, V3772), was added per well and the luminescence was measured after incubating for 10 minutes at room temperature in dark. Results were calculated by measuring the luminescence units of test samples to blanks containing no enzyme.
(§2) The compounds of the present invention were tested for their selectivity for PI3Kδ over PI3Kα, PI3Kβ and PI3Kγ following the above assay using specific recombinant enzymes (Proteros, Germany) for each kinase. Assay condition of kinase assay (PI3Kα, PI3Kβ, PI3Kγ and PI3Kδ) was as follows. Enzyme: 2.29 μg/mL; ATP: 10 μM; PIP2 substrate: 60 μM and Reaction Time: 2 hours.

[3] = tested on: eosinophil count in bronchoalveolar lavage fluid; experiment: Ovalbumin-induced airway eosinophilia model in Brown Norway rats; type: in vivo; conditions: oral; for ED50: bid, absolute eosinophil count in BAL fluid; for Percent inhibition of BAL eosinophil count at 3 mg/kg: ovalbumin challenge
Procedure: The protocols were followed in similar fashion as described in Clin. Exp. Immunol., 2001; 126:9-15 and J. Pharmacol. Exp. Ther., 2011; 337:145-54. Male Brown Norway rats were sensitized by intraperitoneal injection of a suspension of 1 mg of ovalbumin and 100 mg of aluminum hydroxide (in sterile 0.9% saline) on day 0 and 7. On day 14, the compounds were administered to the rats by oral gavage. One hour after oral administration, the animals were placed into a perspex chamber and exposed to an aerosol of 5% ovalbumin for ten minutes. Compounds were administered on Day 14 and Day 15 either once or twice daily. Forty-eight hours after ovalbumin challenge, the animals were euthanized and bronchoalveolar lavage fluid was collected. The cell suspensions were processed and absolute eosinophil count was enumerated.

PI3Kγ = PI3Kγ (Homo sapiens (Human), UniProt P48736); experiment: In vitro enzyme assay (Kinase-Glo), selectivity, PI3Kγ; type: biochemical; conditions: enzyme 2.29 μg/mL; ATP 10 μM; PIP2 60 μM; 2 hours
Procedure: The Kinase-Glo luminescent kinase assay kit (from Promega) was used to measure kinase activity. In this assay, amount of ATP remaining in solution following a kinase reaction is measured. […] The reaction mixture was incubated for 2 hours at room temperature. At the end of incubation period the equal volume of Kinase-Glo plus (Promega, V3772), was added per well and the luminescence was measured after incubating for 10 minutes at room temperature in dark. Results were calculated by measuring the luminescence units of test samples to blanks containing no enzyme.
The compounds of the present invention were tested for their selectivity for PI3Kδ over PI3Kα, PI3Kβ and PI3Kγ following the above assay using specific recombinant enzymes (Proteros, Germany) for each kinase. Assay condition of kinase assay (PI3Kα, PI3Kβ, PI3Kγ and PI3Kδ) was as follows.

PI3Kα = PI3Kα (Homo sapiens (Human), UniProt P42336); experiment: In vitro enzyme assay (Kinase-Glo), selectivity, PI3Kα; type: biochemical; conditions: enzyme 2.29 μg/mL; ATP 10 μM; PIP2 60 μM; 2 hours
Procedure: as §1, §2

[4] = Solubility in Japanese Pharmacopeia First Fluid (JP1) and Second Fluid (JP2); type: physicochemical; conditions: thermodynamic from solid, room temperature
Procedure: A 10 mmol/L solution of the test compound was prepared in DMSO and dispensed 100 μL of 10 mmol/L DMSO stock solutions into labeled glass tubes in duplicate, one for Japanese Pharmacopeia First Fluid (JP1) and second for Japanese Pharmacopeia Second Fluid (JP2). After evaporation of DMSO from each tube, 500 μL of JP1 and JP2 fluid were added in each tube, respectively. These tubes were sonicated for 1 minute and placed on shaker for 30 minutes with an interval of 30 seconds at every 5 minute. Tubes were placed in dark at room temperature for 1 hour and solution was filtered through membrane filter. The filtrate was diluted 2-fold and 10-fold. The resulting test solutions was analyzed and quantified against the standards using UPLC (standard preparation-10 mmol/L solution in DMSO is serially diluted with 50% aqueous acetonitrile solution to prepare 2 solutions; 100 μmol/L standard solution and 5 μmol/L standard solution).

[5] = tested on: eosinophil count in bronchoalveolar lavage fluid; experiment: House dust mite (HDM) induced chronic asthma model in Balb/c mice; type: in vivo; conditions: oral twice daily from week 3 to week 5; absolute eosinophil count in BAL fluid
Procedure: The protocol was followed as described in Am. J. Respir. Crit. Care Med., 2004; 169: 378-385. Female Balb/c mice were exposed to purified HDM (Dermatophagoides pteronyssinus) extract, intranasally (25 μg of protein in 20 μl of saline) for 5 days/week for up to five consecutive weeks. Compounds were administered orally twice daily from week 3 to week 5. Forty-eight hours after last HDM exposure, the animals were euthanized and bronchoalveolar lavage fluid was collected. The cell suspensions were processed and absolute eosinophil count was enumerated.

[6] = enzyme 2.29 μg/mL, ATP 10 μM, PIP2 60 μM, 2 hours
[7] = pH 1.2, simulated gastric fluid, Japanese Pharmacopeia First Fluid (JP1), read-out: Solubility JP1
[8] = pH 6.8, aqueous buffer, Japanese Pharmacopeia Second Fluid (JP2), read-out: Solubility JP2

Sequence of recombinant PI3K δ enzyme (O00329 whole entry, species assumed, canonical isoform): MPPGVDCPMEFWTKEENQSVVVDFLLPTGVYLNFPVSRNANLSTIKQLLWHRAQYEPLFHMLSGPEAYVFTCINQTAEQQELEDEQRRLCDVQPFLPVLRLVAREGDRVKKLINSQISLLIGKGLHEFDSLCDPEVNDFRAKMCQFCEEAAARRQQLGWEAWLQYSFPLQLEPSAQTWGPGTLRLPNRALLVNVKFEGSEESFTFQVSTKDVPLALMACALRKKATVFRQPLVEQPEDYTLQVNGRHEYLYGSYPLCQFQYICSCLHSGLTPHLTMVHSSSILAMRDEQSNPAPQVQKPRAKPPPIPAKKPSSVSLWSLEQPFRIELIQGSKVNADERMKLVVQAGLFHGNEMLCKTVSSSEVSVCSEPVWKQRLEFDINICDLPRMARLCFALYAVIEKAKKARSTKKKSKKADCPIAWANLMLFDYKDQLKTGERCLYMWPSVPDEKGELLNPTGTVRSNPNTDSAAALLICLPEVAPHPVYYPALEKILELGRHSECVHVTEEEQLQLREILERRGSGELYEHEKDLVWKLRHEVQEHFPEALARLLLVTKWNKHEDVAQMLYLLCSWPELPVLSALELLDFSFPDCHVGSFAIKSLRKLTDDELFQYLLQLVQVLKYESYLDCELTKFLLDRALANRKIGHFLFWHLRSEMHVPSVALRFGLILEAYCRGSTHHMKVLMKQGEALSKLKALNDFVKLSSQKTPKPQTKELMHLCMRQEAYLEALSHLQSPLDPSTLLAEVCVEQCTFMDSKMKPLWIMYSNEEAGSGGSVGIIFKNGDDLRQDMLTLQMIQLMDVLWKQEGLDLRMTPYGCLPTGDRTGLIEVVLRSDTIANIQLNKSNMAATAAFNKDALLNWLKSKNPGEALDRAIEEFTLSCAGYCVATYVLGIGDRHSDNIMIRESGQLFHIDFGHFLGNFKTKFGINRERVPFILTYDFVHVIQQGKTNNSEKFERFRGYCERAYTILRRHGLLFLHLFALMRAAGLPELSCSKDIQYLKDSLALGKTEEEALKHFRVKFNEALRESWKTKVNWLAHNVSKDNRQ
Sequence of recombinant PI3K δ enzyme (P27986 whole entry partner, species assumed, canonical isoform): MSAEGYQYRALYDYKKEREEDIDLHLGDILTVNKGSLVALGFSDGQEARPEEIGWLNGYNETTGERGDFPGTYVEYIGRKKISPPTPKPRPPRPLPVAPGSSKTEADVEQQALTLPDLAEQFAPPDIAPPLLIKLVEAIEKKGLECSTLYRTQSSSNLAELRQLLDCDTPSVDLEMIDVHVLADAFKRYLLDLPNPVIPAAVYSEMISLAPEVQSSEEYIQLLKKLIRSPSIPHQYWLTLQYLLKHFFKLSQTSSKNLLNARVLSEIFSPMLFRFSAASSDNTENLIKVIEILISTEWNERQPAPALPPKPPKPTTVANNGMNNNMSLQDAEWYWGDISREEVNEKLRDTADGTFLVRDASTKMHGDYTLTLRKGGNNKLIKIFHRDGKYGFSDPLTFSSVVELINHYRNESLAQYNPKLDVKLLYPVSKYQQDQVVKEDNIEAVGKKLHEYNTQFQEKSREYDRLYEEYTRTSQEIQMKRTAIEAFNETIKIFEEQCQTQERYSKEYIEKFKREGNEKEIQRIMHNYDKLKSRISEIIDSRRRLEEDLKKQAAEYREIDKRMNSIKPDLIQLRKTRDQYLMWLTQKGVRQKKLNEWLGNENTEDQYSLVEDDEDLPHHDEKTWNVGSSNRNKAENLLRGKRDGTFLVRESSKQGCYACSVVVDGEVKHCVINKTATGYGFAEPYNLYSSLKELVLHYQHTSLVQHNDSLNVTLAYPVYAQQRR
Sequence of PI3Kα (P42336 whole entry, species assumed): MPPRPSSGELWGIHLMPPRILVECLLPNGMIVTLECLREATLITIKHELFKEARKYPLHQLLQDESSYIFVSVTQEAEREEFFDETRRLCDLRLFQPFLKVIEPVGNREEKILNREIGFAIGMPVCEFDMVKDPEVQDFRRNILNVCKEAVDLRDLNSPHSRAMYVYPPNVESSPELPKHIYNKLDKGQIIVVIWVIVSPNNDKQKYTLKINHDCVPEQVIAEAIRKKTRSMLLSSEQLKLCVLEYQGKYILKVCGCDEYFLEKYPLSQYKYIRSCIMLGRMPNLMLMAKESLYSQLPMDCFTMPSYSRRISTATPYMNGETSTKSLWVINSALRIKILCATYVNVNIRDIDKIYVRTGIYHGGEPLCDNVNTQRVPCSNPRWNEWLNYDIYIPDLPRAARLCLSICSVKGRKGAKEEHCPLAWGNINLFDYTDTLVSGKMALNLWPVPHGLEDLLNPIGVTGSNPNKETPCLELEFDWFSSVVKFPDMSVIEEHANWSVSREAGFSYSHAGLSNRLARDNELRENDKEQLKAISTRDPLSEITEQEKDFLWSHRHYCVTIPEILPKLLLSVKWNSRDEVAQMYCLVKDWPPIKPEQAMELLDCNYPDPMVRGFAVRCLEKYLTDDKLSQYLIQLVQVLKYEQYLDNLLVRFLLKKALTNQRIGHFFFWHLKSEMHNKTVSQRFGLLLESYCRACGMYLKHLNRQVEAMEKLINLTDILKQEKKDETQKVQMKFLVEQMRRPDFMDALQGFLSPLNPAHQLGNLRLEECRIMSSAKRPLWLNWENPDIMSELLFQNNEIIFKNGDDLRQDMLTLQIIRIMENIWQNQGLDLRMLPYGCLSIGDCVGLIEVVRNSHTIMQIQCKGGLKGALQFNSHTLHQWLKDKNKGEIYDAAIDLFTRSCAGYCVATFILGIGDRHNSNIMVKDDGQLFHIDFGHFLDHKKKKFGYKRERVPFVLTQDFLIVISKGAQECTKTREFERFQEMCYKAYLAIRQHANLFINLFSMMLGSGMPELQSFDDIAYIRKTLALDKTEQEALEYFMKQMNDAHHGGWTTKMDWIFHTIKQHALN
Sequence of PI3Kα (P27986 whole entry partner, species assumed): as the sequence (P27986 whole entry partner, species assumed, canonical isoform) above
Sequence of PI3Kγ (P48736 whole entry, species assumed): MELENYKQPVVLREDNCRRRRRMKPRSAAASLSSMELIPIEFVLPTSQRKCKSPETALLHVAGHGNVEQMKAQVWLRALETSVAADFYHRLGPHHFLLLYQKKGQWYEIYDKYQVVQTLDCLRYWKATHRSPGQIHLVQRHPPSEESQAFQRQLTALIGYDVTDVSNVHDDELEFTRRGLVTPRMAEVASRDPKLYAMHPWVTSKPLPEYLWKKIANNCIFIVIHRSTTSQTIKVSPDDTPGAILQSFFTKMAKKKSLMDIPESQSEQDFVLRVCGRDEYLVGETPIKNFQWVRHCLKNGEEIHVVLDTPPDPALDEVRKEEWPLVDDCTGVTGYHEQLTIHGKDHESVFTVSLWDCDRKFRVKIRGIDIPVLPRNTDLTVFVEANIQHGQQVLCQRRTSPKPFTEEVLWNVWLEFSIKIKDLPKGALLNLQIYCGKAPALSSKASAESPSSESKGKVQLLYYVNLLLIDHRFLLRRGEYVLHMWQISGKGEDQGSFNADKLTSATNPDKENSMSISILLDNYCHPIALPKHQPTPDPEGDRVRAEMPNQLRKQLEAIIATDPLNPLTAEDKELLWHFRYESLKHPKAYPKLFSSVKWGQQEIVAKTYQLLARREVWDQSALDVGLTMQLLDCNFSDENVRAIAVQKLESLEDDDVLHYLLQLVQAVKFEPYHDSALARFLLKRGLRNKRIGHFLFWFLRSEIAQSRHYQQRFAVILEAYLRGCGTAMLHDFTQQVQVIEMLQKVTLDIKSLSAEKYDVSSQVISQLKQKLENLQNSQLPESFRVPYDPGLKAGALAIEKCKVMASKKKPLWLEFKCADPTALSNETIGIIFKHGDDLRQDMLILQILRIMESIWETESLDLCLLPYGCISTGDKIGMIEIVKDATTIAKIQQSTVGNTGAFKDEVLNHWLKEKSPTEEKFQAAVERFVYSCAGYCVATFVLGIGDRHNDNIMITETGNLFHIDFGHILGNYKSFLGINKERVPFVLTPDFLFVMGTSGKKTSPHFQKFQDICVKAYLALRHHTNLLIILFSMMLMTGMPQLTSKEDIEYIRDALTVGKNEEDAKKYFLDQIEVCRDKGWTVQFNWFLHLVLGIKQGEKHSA
Sequence of PI3Kβ (P42338 whole entry, species assumed): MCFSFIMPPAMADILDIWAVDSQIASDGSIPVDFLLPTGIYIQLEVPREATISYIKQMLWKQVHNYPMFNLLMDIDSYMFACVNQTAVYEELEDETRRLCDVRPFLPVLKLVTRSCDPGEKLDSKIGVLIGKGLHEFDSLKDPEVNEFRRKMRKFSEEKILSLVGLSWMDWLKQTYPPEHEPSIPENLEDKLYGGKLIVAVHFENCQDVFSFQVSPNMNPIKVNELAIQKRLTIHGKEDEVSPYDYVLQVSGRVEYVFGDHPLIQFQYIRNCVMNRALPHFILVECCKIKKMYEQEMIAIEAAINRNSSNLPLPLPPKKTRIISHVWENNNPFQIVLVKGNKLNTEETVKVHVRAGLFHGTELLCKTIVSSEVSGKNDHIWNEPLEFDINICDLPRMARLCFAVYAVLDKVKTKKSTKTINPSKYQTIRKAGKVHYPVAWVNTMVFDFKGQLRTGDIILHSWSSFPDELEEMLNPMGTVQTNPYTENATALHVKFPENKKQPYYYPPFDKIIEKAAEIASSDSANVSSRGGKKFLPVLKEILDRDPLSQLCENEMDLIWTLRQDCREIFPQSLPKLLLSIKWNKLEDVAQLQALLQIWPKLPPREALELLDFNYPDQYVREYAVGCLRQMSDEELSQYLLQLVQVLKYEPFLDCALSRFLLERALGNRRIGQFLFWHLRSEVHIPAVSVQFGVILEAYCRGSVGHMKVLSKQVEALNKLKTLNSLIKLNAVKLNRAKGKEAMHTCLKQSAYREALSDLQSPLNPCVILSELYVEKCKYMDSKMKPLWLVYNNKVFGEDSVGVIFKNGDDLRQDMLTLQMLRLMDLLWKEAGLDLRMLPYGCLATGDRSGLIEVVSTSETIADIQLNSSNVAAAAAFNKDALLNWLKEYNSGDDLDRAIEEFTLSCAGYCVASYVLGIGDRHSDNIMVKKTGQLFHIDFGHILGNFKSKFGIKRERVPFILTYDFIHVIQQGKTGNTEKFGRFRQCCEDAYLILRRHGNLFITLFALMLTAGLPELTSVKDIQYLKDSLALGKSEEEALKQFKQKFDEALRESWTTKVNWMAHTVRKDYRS
Sequence of PI3Kβ (P27986 whole entry partner, species assumed): as the sequence (P27986 whole entry partner, species assumed, canonical isoform) above

| IC50 [1] [nM] | IC50 [2] [nM] | IC50 [2, 6] [nM] | IC50 (PI3Kβ) [nM] | IC50 (PI3Kγ) [nM] | IC50 (PI3Kα) [nM] | solubility at 30 min [4, 7] [µg/mL] | solubility at 30 min [4, 8] [µg/mL] | Compound | ED50 [3] | Percent inhibition of BAL eosinophil count at 3 mg/kg [3] [%] | ED50 [5] |
| --- | --- | --- | --- | --- | --- | --- | --- | --- | --- | --- | --- |
| 111 |  |  |  | 1180 | > 1000 | 834 (≈ 1640 µM) | 286 (≈ 561 µM) | C[C@@H]1CN(C2CCN(C(=O)c3nc4c(N5CCOCC5)nc(-c5cnn(C)c5)nc4[nH]3)CC2)C[C@H](C)O1 [compound 5, {4-[cis-2,6-Dimethylmorpholin-4-yl]piperidin-1-yl}[2-(1-methyl-1H-pyrazol-4-yl)-6-(morpholin-4-yl)-9H-purin-8-yl]methanone] |  |  | 1.6 mg/Kg, bid |
| 6 | 14 | 14 | > 10000 | > 1000 | > 1000 | > 1200 | 170 (≈ 353 µM) | Cn1cc(-c2nc(N3CCOCC3)c3nc(C(=O)N4CCC(N5CCOCC5)CC4)[nH]c3n2)cn1 [Compound No. 58, [2-(1-methyl-1H-pyrazol-4-yl)-6-(morpholin-4-yl)-9H-purin-8-yl][4-(morpholin-4-yl)piperidin-1-yl]methanone] | 0.3 mg/kg, bid |  | 0.1 mg/Kg, bid |

More lines, now with the values behind:

| Compound | IC50 [1] [nM] | IC50 [2] [nM] | IC50 [2, 6] [nM] | IC50 (PI3Kβ) [nM] | IC50 (PI3Kγ) [nM] | IC50 (PI3Kα) [nM] | solubility at 30 min [4, 7] [µg/mL] | solubility at 30 min [4, 8] [µg/mL] | ED50 [3] | Percent inhibition of BAL eosinophil count at 3 mg/kg [3] [%] | ED50 [5] |
| --- | --- | --- | --- | --- | --- | --- | --- | --- | --- | --- | --- |
| Cc1nn(C)cc1-c1nc2c(nc(C(=O)N3CCC(N4CCOCC4)CC3)n2C)c(N2CCOCC2)c1F [compound 87, [5-(1,3-Dimethyl-1H-pyrazol-4-yl)-6-fluoro-3-methyl-7-(morpholin-4-yl)-3H-imidazo[4,5-b]pyridin-2-yl][4-(morpholin-4-yl)piperidin-1-yl]methanone] | 47 | 3 | 3 | > 10000 | > 10000 | > 10000 |  |  | 0.8 mg/kg, bid |  |  |
| Cn1cc(-c2cc(N3CCOCC3)c3nc(C(=O)N4CCC5(CC4)COC5)[nH]c3n2)cn1 [compound 78, [5-(1-Methyl-1H-pyrazol-4-yl)-7-(morpholin-4-yl)-3H-imidazo[4,5-b]pyridin-2-yl](2-oxa-7-azaspiro[3.5]non-7-yl)methanone] | 28 | 13 | 13 | > 10000 | 640 | 2190 |  |  |  | 45 |  |
| Cn1cc(-c2nc(N3CCOCC3)c3nc(C(=O)N4CCC5(CC4)COC5)[nH]c3n2)cn1 [compound 3, [2-(1-Methyl-1H-pyrazol-4-yl)-6-(morpholin-4-yl)-9H-purin-8-yl](2-oxa-7-azaspiro[3.5]non-7-yl)methanone] | 55 | 15 | 15 | > 10000 | > 1000 | > 1000 |  |  |  | 46 |  |
| Cc1nn(C)cc1-c1nc2[nH]c(C(=O)N3CCC(C(C)(C)O)CC3)nc2c(N2CCOCC2)c1F [compound 84, [5-(1,3-Dimethyl-1H-pyrazol-4-yl)-6-fluoro-7-(morpholin-4-yl)-3H-imidazo[4,5-b]pyridin-2-yl][4-(2-hydroxypropan-2-yl)piperidin-1-yl]methanone] |  | 5 |  |  |  |  |  |  |  | 26 |  |
| Cc1nn(C)cc1-c1nc2[nH]c(C(=O)N3CCC(N4CCOCC4)CC3)nc2c(N2CCOCC2)c1F [compound 96, [5-(1,3-Dimethyl-1H-pyrazol-4-yl)-6-fluoro-7-(morpholin-4-yl)-3H-imidazo[4,5-b]pyridin-2-yl][4-(morpholin-4-yl)piperidin-1-yl]methanone] |  | 3 |  |  |  |  | > 1020 | 424 (≈ 827 µM) | 2.5 mg/kg, bid |  |  |
